Laboratory results as given in ChEMBL document CHEMBL4483862, “Open-source discovery of chemical leads for next-generation chemoprotective antimalarials” (2018).

Test system: Plasmodium berghei
Experiment: Luciferase/luciferin-expressing antifolate-resistant parasites were used to infect a culture of HepG2 cells that were pre-incubated with compounds. Infected hepatocytes emit light due to the luciferase reaction. Assay results are presented as the percent inhibition of light emission compared to control. […]
Assay type: functional
Conditions: sporozoite; for IC90: read-out: LUCIFERASE INFECTION ASSAY - IC90
[1] = read-out: LUCIFERASE INFECTION ASSAY - IC50

Compound	IC90	other results
COc1ccc2nc3[nH]nc(N)c3cc2c1	> 10 µM	IC50 [1]: > 10 µM
O=[N+]([O-])c1ccc(-c2[nH]nc(-c3ccccc3)c2-c2ccc3ccccc3n2)cc1	9.84 µM	IC50 (FFLUC_HILL_SLOPE 2.78, FFLUC_R_SQUARED 0.0561, HEPG2TOX_HILL_SLOPE 6.28, HEPG2TOX_R_SQUARED 0.62, PBLUC_HILL_SLOPE 3.02, PBLUC_R_SQUARED 0.452, read-out: LUCIFERASE INFECTION ASSAY - IC50): 4.75 µM
O=C(CSc1ccccc1[N+](=O)[O-])NNC(=S)NC1CC2C=CC1C2 (configuration not stated)	> 8.72 µM	IC50 [1]: > 8.72 µM
CCOC(=O)c1c(/C=C/C(=O)Nc2nc(C)cs2)c(C)n(CC)c1C	> 10 µM	IC50 (PBLUC_HILL_SLOPE 0.644, PBLUC_R_SQUARED 0.0145, read-out: LUCIFERASE INFECTION ASSAY - IC50): > 10 µM
CC(C)(c1ccccc1)c1ccc(OCC(O)CN2CCC(C(N)=O)CC2)cc1 (configuration not stated)	> 10 µM	IC50 [1]: > 10 µM
O=C(Nc1nc2c(s1)CCC2)c1cnn(-c2ccccc2)c1C1CC1	0.405 µM	IC50 (FFLUC_HILL_SLOPE 2.39, FFLUC_R_SQUARED 0.896, PBLUC_HILL_SLOPE 0.607, PBLUC_R_SQUARED 0.989, read-out: LUCIFERASE INFECTION ASSAY - IC50): 0.0108 µM
Cc1cc(C)n2nc(C(=O)OCC(=O)N(C)Cc3ccsc3)nc2n1	> 10 µM	IC50 [1]: > 10 µM
Cc1cccc(Nc2cc3[nH]c(-c4ccc(C(=O)N(C)C)cc4)cc3cn2)c1	> 10 µM	IC50 [1]: 6.24 µM
C=C(C)C[n+]1cn(C)c(-c2ccccc2)c1-c1ccccc1	> 10 µM	IC50 (HEPG2TOX_HILL_SLOPE 0.508, HEPG2TOX_R_SQUARED 0.671, PBLUC_HILL_SLOPE 5.71, PBLUC_R_SQUARED 0.631, read-out: LUCIFERASE INFECTION ASSAY - IC50): 7.55 µM
CC1(C)N=C(N)N=C(N)N1c1ccc(Cl)cc1 [CYCLOGUANIL]	0.515 µM	IC50 (FFLUC_HILL_SLOPE 0.496, FFLUC_R_SQUARED 0.478, PBLUC_HILL_SLOPE 5.33, PBLUC_R_SQUARED 0.733, read-out: LUCIFERASE INFECTION ASSAY - IC50): 0.341 µM
CC(=O)c1cccc(-c2cnc3ccc(-c4cncnc4)nn23)c1	3.69 µM	IC50 (HEPG2TOX_HILL_SLOPE 1.11, HEPG2TOX_R_SQUARED 0.828, PBLUC_HILL_SLOPE 6.15, PBLUC_R_SQUARED 0.481, read-out: LUCIFERASE INFECTION ASSAY - IC50): 2.58 µM
Cc1cccc(NC(=S)Nc2cn(-c3ccccc3)nc2-c2ccc(Br)cc2)c1C	> 10 µM	IC50 (FFLUC_HILL_SLOPE 12, FFLUC_R_SQUARED 0.538, PBLUC_HILL_SLOPE 15.7, PBLUC_R_SQUARED 0.516, read-out: LUCIFERASE INFECTION ASSAY - IC50): 9.52 µM
COc1ccc(O)c(C=C(c2nc3ccccc3s2)c2nc3ccccc3s2)c1	> 10 µM	IC50 (FFLUC_HILL_SLOPE 21.2, FFLUC_R_SQUARED 0.491, read-out: LUCIFERASE INFECTION ASSAY - IC50): > 10 µM
Cc1c(-c2ccccc2)oc2c(C(=O)N3CCc4ccccc4C3)cccc2c1=O	> 10 µM	IC50 (PBLUC_HILL_SLOPE 6.24, PBLUC_R_SQUARED 0.0221, read-out: LUCIFERASE INFECTION ASSAY - IC50): > 10 µM
CCC(=O)c1cc(Br)ccc1OC(=O)Cc1coc2cc(C)c(C)cc12	8.33 µM	IC50 (FFLUC_HILL_SLOPE 11.7, FFLUC_R_SQUARED 0.164, HEPG2TOX_HILL_SLOPE 5.81, HEPG2TOX_R_SQUARED 0.234, PBLUC_HILL_SLOPE 5.23, PBLUC_R_SQUARED 0.568, read-out: LUCIFERASE INFECTION ASSAY - IC50): 5.48 µM
CCOc1ccc2nc(N/N=C3/C(=O)N(c4ccccc4)N=C3C)sc2c1	9.42 µM	IC50 (PBLUC_HILL_SLOPE 22.7, PBLUC_R_SQUARED 0.625, read-out: LUCIFERASE INFECTION ASSAY - IC50): 8.55 µM
COc1cc(Cl)c(C)cc1NC(=O)Cn1c(=O)c(=O)n(Cc2ccccc2)c2ccc(Cl)cc21	> 10 µM	IC50 (FFLUC_HILL_SLOPE 92.5, FFLUC_R_SQUARED 0.216, PBLUC_HILL_SLOPE 2.05, PBLUC_R_SQUARED 0.328, read-out: LUCIFERASE INFECTION ASSAY - IC50): 4.54 µM
CSc1ccc(C2=NNC(=NC3CC3)SC2)cc1	> 10 µM	IC50 (FFLUC_HILL_SLOPE 0.857, FFLUC_R_SQUARED 0.948, PBLUC_HILL_SLOPE 0.604, PBLUC_R_SQUARED 0.771, read-out: LUCIFERASE INFECTION ASSAY - IC50): 0.467 µM
C=CCNC(=S)N1CCc2sccc2C1c1ccc(Cl)cc1 (configuration not stated)	> 9.46 µM	IC50 (PBLUC_HILL_SLOPE 2.11, PBLUC_R_SQUARED 0.465, read-out: LUCIFERASE INFECTION ASSAY - IC50): 4.12 µM
N#Cc1cc(C(=O)c2cc(F)ccc2OC(=O)C2(c3ccccc3)CC2)cn(Cc2ccccc2)c1=O	> 10 µM	IC50 [1]: > 10 µM
CC(=O)Nc1cccc(-c2ccc3c(-c4ccccc4Oc4ccccc4)[nH]nc3n2)c1	> 7.85 µM	IC50 (HEPG2TOX_HILL_SLOPE 12.7, HEPG2TOX_R_SQUARED 0.516, PBLUC_HILL_SLOPE 10.9, PBLUC_R_SQUARED 0.441, read-out: LUCIFERASE INFECTION ASSAY - IC50): 6.81 µM
